The record followed here is publication PMC10174618, “Monoterpenoid aryl hydrocarbon receptor allosteric antagonists protect against ultraviolet skin damage in female mice” (Nature Communications, 2023).

Experiment in all cases: biochemical
Design in all cases: KINOMEscan scanMAX active site-directed competition binding assay, percent of control, 468 kinases
Common to all, as to settings: competition binding, percent of control

Assay [1] deals with T1, JAK1(JH1domain-catalytic) (Homo sapiens, UniProt P23458).
T1 construct: JH1domain-catalytic
T1 sequence (P23458 whole entry): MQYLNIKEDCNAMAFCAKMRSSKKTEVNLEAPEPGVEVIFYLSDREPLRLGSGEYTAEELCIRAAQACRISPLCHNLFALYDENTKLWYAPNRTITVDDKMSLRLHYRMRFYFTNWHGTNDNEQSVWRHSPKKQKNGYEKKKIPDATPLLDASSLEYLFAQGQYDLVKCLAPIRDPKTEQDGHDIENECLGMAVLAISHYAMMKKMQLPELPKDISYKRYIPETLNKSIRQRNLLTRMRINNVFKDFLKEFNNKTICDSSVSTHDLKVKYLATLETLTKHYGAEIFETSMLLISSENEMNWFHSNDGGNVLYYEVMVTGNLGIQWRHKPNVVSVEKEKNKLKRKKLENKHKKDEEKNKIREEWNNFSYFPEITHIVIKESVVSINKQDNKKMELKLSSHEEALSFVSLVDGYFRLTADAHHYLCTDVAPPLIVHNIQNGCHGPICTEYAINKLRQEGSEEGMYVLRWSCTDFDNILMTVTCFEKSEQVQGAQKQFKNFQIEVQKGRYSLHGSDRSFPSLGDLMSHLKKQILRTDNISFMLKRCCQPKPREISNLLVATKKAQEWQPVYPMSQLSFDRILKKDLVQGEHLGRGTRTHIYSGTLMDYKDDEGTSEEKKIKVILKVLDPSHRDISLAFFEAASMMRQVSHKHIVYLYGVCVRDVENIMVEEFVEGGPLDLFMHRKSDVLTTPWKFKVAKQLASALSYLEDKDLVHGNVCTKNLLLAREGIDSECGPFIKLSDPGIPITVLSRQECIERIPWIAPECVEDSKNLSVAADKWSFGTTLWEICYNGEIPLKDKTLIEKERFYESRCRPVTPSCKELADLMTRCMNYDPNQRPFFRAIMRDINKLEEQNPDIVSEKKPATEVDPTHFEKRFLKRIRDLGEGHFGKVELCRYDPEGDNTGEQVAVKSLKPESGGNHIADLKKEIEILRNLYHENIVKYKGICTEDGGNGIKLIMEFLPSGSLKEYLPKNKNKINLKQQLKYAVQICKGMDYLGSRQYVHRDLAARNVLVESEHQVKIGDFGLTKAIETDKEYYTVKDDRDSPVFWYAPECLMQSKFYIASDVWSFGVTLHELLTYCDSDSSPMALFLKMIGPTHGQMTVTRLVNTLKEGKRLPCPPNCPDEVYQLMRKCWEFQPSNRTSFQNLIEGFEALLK
Summed up:
(§1)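 KINOMEscan active site-directed competition binding assay against 468 human kinases with 100 μM S-carvone. Binding expressed as % of control, with 35% of control as the inhibition threshold.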

The target of assay [2] is PLK3 (Homo sapiens, UniProt Q9H4B4). Summed up:
as §1

Assay [3] addresses BUB1 (Homo sapiens, UniProt O43683). The method in brief: as §1
Assay [4] deals with EGFR(E746-A750del) (Homo sapiens, UniProt P00533, DEL746-750). The method in brief: as §1
For assay [5], the target named is FLT3-autoinhibited (Homo sapiens, UniProt P36888). The method in brief:
as §1

The target of assay [6] is FYN (Homo sapiens, UniProt P06241). Summed up:
as §1

For assay [7], the target named is ROS1 (Homo sapiens, UniProt P08922). Summed up:
as §1

In assay [8] the target is PKN1 (Homo sapiens, UniProt Q16512). The method in brief: as §1
The target in assay [9] is FLT3(D835Y) (Homo sapiens, UniProt P36888, D835Y). The method in brief:
as §1

For assay [10], the target named is PIK3C2B (Homo sapiens, UniProt O00750). The method in brief: as §1
Assay [11] has as its target MAP3K15 (Homo sapiens, UniProt Q6ZN16). Summed up: as §1
For assay [12], the target named is T2, AMPK-alpha1 (Homo sapiens, UniProt Q13131).
T2 construct: gene PRKAA1
The method in brief: as §1

The target in assay [13] is EPHA6 (Homo sapiens, UniProt Q9UF33). Summed up:
as §1

The target in assay [14] is T3, MEK2 (Homo sapiens, UniProt P36507).
T3 construct: gene MAP2K2
Summed up: as §1

Assay [15] addresses PIK3CG (Homo sapiens, UniProt P48736). Summed up:
as §1

Assay [16] concerns the target EPHA4 (Homo sapiens, UniProt P54764). Summed up:
as §1

Assay [17] has as its target AKT1 (Homo sapiens, UniProt P31749). The method in brief:
as §1

The target in assay [18] is CIT (Homo sapiens, UniProt O14578). Summed up:
as §1

Assay [19] concerns the target T4, BIKE (Homo sapiens, UniProt Q9NSY1).
T4 construct: gene BMP2K
Summed up:
as §1

Assay [20] deals with FES (Homo sapiens, UniProt P07332). Summed up: as §1
The target of assay [21] is T5, PIK4CB (Homo sapiens, UniProt Q9UBF8).
T5 construct: gene PI4KB
T5 sequence (Q9UBF8 whole entry): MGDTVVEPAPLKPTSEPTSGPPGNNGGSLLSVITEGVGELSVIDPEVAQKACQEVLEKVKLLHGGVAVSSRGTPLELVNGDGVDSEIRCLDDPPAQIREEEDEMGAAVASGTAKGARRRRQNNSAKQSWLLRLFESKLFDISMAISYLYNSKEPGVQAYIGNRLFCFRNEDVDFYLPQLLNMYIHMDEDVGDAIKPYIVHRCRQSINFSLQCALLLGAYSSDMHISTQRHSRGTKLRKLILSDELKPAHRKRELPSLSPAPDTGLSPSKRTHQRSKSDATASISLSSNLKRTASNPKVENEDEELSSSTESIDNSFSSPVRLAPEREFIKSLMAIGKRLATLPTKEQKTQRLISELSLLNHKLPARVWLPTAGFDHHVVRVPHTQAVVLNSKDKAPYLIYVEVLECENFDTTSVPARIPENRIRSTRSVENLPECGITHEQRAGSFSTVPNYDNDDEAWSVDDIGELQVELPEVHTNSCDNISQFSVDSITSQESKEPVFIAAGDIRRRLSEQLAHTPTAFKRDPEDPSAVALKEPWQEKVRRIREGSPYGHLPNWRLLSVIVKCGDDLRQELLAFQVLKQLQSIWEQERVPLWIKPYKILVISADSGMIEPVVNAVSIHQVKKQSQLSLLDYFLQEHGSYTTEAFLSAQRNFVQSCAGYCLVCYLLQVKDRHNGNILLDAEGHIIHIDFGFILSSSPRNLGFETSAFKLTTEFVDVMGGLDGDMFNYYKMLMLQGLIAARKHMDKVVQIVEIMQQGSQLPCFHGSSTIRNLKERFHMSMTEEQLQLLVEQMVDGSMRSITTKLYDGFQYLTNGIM
Summed up:
as §1

Assay [22] deals with AKT2 (Homo sapiens, UniProt P31751). Summed up:
as §1

EPHA4, sequence (P54764 whole entry): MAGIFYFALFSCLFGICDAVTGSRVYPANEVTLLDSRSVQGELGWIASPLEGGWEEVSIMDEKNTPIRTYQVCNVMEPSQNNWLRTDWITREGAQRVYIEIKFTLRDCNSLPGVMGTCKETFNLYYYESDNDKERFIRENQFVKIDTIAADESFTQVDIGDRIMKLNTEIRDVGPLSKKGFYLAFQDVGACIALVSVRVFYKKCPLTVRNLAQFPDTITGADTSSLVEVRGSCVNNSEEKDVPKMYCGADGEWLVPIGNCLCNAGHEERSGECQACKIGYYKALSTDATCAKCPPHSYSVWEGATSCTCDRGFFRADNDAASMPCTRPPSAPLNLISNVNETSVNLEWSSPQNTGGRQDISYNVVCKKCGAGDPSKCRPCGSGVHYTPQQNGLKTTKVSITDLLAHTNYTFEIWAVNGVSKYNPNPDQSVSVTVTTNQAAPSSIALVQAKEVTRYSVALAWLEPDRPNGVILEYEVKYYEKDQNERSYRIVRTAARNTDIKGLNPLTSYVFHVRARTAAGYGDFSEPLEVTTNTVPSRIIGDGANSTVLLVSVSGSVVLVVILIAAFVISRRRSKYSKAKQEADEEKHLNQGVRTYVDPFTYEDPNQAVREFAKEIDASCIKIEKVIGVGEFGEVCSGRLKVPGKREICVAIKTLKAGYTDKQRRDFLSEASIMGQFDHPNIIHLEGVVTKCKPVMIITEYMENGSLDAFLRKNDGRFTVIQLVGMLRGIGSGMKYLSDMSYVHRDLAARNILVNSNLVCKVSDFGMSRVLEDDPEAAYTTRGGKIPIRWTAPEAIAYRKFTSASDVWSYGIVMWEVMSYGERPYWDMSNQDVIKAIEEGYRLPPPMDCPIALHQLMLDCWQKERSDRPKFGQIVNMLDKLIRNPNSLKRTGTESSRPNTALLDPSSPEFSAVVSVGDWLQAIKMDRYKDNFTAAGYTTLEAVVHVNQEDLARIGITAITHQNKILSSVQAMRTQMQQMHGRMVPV
EPHA6, sequence (Q9UF33 whole entry): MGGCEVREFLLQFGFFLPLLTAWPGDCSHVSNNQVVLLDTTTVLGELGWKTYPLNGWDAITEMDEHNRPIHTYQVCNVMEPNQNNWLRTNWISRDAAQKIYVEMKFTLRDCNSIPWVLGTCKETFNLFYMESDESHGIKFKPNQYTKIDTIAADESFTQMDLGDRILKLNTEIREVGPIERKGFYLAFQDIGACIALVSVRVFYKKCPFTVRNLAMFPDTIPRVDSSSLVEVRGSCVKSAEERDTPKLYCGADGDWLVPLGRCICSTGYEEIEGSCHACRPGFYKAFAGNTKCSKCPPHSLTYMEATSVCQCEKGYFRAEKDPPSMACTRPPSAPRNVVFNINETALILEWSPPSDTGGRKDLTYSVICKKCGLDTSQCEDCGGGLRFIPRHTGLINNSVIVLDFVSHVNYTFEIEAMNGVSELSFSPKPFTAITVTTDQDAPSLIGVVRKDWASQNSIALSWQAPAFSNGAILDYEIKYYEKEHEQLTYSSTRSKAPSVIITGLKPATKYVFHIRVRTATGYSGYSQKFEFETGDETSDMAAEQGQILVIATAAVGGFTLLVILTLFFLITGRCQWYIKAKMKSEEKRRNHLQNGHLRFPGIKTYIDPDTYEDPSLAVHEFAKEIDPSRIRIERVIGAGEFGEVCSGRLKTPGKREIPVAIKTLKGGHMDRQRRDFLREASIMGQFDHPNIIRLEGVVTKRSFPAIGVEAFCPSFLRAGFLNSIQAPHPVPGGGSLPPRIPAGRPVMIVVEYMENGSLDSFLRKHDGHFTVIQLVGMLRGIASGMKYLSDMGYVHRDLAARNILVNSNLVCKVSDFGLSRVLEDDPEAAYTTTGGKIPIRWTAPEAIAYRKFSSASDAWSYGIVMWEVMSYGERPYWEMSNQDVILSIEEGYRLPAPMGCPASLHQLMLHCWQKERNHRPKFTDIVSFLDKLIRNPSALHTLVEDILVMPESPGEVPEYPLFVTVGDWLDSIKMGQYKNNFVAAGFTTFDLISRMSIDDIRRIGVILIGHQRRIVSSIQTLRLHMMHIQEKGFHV
FYN, sequence (P06241 whole entry): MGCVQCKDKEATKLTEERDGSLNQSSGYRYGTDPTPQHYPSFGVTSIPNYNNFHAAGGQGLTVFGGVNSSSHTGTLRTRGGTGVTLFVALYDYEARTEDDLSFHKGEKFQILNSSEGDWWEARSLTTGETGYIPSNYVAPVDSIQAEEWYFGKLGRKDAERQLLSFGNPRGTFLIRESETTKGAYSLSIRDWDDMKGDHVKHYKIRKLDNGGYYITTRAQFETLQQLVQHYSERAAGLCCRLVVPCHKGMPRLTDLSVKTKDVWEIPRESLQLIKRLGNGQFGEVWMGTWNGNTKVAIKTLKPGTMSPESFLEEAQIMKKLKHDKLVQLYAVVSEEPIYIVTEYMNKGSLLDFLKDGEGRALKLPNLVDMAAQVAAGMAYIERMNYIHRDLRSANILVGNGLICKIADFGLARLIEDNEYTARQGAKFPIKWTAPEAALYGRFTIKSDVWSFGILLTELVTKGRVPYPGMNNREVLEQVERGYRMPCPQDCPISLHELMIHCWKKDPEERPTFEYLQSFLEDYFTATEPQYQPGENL
AKT1, sequence (P31749 whole entry): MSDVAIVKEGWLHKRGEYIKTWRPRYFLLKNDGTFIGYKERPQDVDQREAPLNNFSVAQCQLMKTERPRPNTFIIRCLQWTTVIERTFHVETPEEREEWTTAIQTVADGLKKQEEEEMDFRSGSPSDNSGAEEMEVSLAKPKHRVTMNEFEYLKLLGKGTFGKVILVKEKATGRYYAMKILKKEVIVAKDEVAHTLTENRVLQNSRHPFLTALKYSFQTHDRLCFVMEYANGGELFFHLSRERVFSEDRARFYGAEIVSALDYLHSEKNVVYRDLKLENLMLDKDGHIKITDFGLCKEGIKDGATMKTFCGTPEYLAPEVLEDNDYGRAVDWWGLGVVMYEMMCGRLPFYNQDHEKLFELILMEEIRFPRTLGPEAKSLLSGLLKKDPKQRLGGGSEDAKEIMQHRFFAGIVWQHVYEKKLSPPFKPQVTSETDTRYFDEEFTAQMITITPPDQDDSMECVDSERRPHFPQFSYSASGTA

On to `C=C(C)[C@H]1CC=C(C)C(=O)C1` [S-carvone], for which the remaining binding at 100 µM in assay [1] amounted to 100%; in assay [2] it was 69%; in assay [3] it was 85%; in assay [4] it was 62%; in [5] it was 67%; in assay [6], 90%. The remaining binding at 100 µM in assay [7] turned out to be 83%; in assay [8] it was 93%; in [9] it was 90%; in assay [10] it was 72%; in assay [11], 93%; in assay [12], 89%. Also, the remaining binding at 100 µM amounted to 64% in [13]; 86% in assay [14]; 69% in assay [15]; 84% in assay [16]; 84% in [17]; 81% in assay [18]. Also, the remaining binding at 100 µM in assay [19] stood at 100%; in assay [20], 69%; in assay [21] it was 65%; in assay [22], 86%.
